Here are results for two compounds from patent US6752986B2, “Composition and methods for affecting metallocorrinoid uptake” (The Cleveland Clinic Foundation, priority 2001, dated 2004).

The test system of assay [1] is NIH-OVCAR-3 ovarian carcinoma. The assay can be described thus: SRB anti-proliferative cell survival assay, NIH-OVCAR-3. Format: cell-based, human. Conditions: concentration used in the Annexin V assay for 48 hrs.
Assay [2] relates to subcutaneous NIH-OVCAR-3 tumors. The assay can be described thus: Intraperitoneal NO-Cbl treatment of established subcutaneous NIH-OVCAR-3 tumors. The class given is in vivo, nude mice.
In assay [3] the test system is WM9 human melanoma. Briefly: SRB anti-proliferative cell survival assay, WM9. The note with it: WM9 versus NIH-OVCAR-3. Format: cell-based. The procedure:
WM9 human melanoma was evaluated after 4 days growth.
Cells (2×10^3) were seeded in 96-well plates. Data points represent mean of eight replicates. (n=8). A control plate was fixed 4 hr after seeding (to allow cells to attach) to determine the initial seeding density (Aini). This was defined as 0% growth. To the wells of the seeded experimental plate, IFN-β was added and incubation continued for 3-5 days. Untreated cell controls were included. Growth obtained with this control was defined as 100% (Afin). To determine cell number, cells were fixed with 10% trichloroacetic acid at 4° C. for 1 h. They were stained with 0.4% sulforhodamine B prepared in 1% acetic acid at 25° C. for 1 h (27). The wells were washed with 1% acetic acid. Bound dye was eluted with 100 μl of 10 mM Tris-HCl, ph 10.5 and quantitated in a microplate reader at 570 nm. Growth in IFN-β-treated wells (experimental=exp) was expressed as a percentage of untreated control growth (mean±SEM).
%Control growth=100%×(Aexp−Aini)/(Afin−Aini)
%STD=100%×(STDexp/(Afin−Aini))
%SEM=100%×(SEMexp/(Afin−Aini) ) where SEM=STD/✓n

Assay [4] has as its system five human hematological and eight solid tumor cell lines. The note with it: cited from earlier work.
Assay [5] deals with P388D1. Conditions: P388D1, high levels of Cbl; cited from earlier work.
The subject of assay [6] is L1210. Conditions: L1210, high levels of Cbl; cited from earlier work.
For assay [7], the system named is CCRF-CEM. The note with it: high levels of Cbl; cited from earlier work.
Assay [8] relates to NCTC929. Conditions: NCTC929, high levels of Cbl; cited from earlier work.

As to Nitrosylcobalamin [NO-Cbl], in assay [1], the ID25 worked out at 10 µM. For the same compound, in assay [2] (at the end of the study), the “mean volume of untreated tumors compared to NO-Cbl treated tumors” value amounted to 18 fold. For the same compound, in assay [2] (during the treatment period), the “decrease in volume of treated tumors” value came to 4 fold. Besides, the tumor response result in assay [2] (intraperitoneal NO-Cbl, established subcutaneous NIH-OVCAR-3 tumors) was “tumor regression”. Also, the “ID50 of WM9 cells compared to NIH-OVCAR-3” value in assay [3] was “higher ID50”. In assay [4], the “ID50 lower in tumor cell lines compared to benign cells (fibroblasts and endothelial cells)” value is given as 5-100 fold.
In the case of `C/C1=C2/[N-][C@H]([C@H](CC(N)=O)[C@@]2(C)CCC(=O)NC[C@@H](C)OP(=O)([O-])O[C@H]2[C@@H](O)[C@@H](n3cnc4cc(C)c(C)cc43)O[C@@H]2CO)[C@]2(C)N=C(/C(C)=C3N=C(/C=C4N=C1[C@@H](CCC(N)=O)C\4(C)C)[C@@H](CCC(N)=O)[C@]\3(C)CC(N)=O)[C@@H](CCC(N)=O)[C@]2(C)CC(N)=O.[Co]` [Cbl, cobalamin], the cell proliferation entry in assay [5], in assay [6], in assay [7] and in assay [8] was “inhibited” each time.
